Results as given in US9688702B2, “Alpha-amino boronic acid derivatives, selective immunoproteasome inhibitors” (Ares Trading S.A, priority 2011, dated 2017).

How the values were obtained:
[1] = molecular target: Beta5 (purified human constitutive proteasome) (Homo sapiens, UniProt P28074); experiment: Determination of Beta5 activity (fluorescence intensity assay, Suc-LLVY-AMC); format: biochemical; conditions: purified human constitutive proteasome 1.0 nM, 40 μM Suc-LLVY-AMC, 37° C.
Experimental: Measurement of Beta5 inhibition is performed in 384 well format based on fluorescence intensity assay.
(§1) Purified human constitutive proteasome (1.0 nM) and serial diluted compounds in DMSO (range of concentrations from 10 μM to 38 pM) or controls (0.5% DMSO) are incubated for 30 minutes at 37° C. in assay buffer containing 50 mM Tris pH 7.4 and 0.03% SDS. The reaction is initiated by the addition of the fluorogenic peptide substrate, Suc-LLVY-AMC (Bachem 1-1395), at a concentration of 40 μM. After 90 minutes of incubation at 37° C., fluorescence intensity is measured at λex=350 nm and λem=450 nm with a fluorescence reader (BMG Pherastar reader or equivalent).

[2] = molecular target: LMP7 (purified human immuno proteasome) (Homo sapiens, UniProt P28062); experiment: Determination of LMP7 activity (fluorescence intensity assay, Suc-LLVY-AMC); format: biochemical; conditions: for IC50: 40 μM Suc-LLVY-AMC, 37° C.
Experimental: Measurement of LMP7 inhibition is performed in 384 well format based on fluorescence intensity assay.
as §1, with “immuno” for “constitutive”, “(0.5” for “(1.0”, “I-1395),” for “1-1395),”
as §1, with “immuno” for “constitutive”, “(0.25” for “(1.0”, “I-1395),” for “1-1395),”

[3] = purified human immuno proteasome 0.5 nM

| SMILES | IC50 [1] [nM] | Selectivity LMP7 vs Beta5 [2] | IC50 ([2]; purified human immuno proteasome 0.25 nM (examples 79, 80, 83, 84, 85, 87, 88, 89, 90, 91, 93, 94, 96, 97, 101 and 110)) [nM] | IC50 [2, 3] [nM] |
| --- | --- | --- | --- | --- |
| O=C(CCc1ccc(F)cc1)N[C@@H](Cc1coc2ccccc12)B(O)O [Example 80, (R)-(2-(benzofuran-3-yl)-1-(3-(4-fluorophenyl)propanamido)ethyl) boronic acid] | < 50 | +++ (+++: Selectivity > 30) | < 50 | – |
| O=C(CCC(=O)c1ccccc1)N[C@@H](Cc1ccsc1)B(O)O [Example 1, [(1R)-1-[(4-oxo-4-phenylbutanoyl)amino]-2-(3-thienyl)ethyl]boronic acid] | 500 to 5000 | ++ (++: 10 < Selectivity < 30) | – | 50 to 500 |
| O=C(CCn1cc(-c2ccccc2)nn1)N[C@@H](Cc1csc2ccccc12)B(O)O [Example 104, (R)-(2-(benzo[b]thiophen-3-yl)-1-(3-(4-phenyl-1H-1,2,3-triazol-1-yl)propanamido)ethyl)boronic acid] | < 50 | + (+: Selectivity < 10) | – | < 50 |
| O=C(CCc1cn(-c2cccnc2)nn1)N[C@@H](Cc1ccc2ccccc2c1)B(O)O [Example 99, (R)-(2-(naphthalen-2-yl)-1-(3-(1-(pyridin-3-yl)-1H-1,2,3-triazol-4-yl)propanamido)ethyl)boronic acid] | 500 to 5000 | +++ (+++: Selectivity > 30) | – | < 50 |
| O=C(CCn1cnc2ccccc21)N[C@@H](Cc1csc2ccccc12)B(O)O [Example 106, (R)-(1-(3-(1H-benzo[d]imidazol-1-yl)propanamido)-2-(benzo[b]thiophen-3-yl)ethyl)boronic acid] | < 50 | ++ (++: 10 < Selectivity < 30) | – | < 50 |
| CCc1cccc(C[C@H](NC(=O)CCC(=O)c2ccccc2)B(O)O)c1 [Example 6, {(1R)-2-(3-ethylphenyl)-1-[(4-oxo-4-phenylbutanoyl)amino]ethyl}boronic acid] | > 5000 | +++ (+++: Selectivity > 30) | – | 50 to 500 |
| O=C(N[C@@H](Cc1ccsc1)B(O)O)[C@@H](Cc1ccccc1)Cc1cn(-c2ccccc2)nn1 [Example 63, ((R)-1-((S)-2-benzyl-3-(1-phenyl-1H-1,2,3-triazol-4-yl)propanamido)-2-(thiophen-3-yl)ethyl)boronic acid] | < 50 | ++ (++: 10 < Selectivity < 30) | – | < 50 |
| CCc1cccc(C[C@H](NC(=O)CCn2cc(-c3ccccc3OC)nn2)B(O)O)c1 [Example 73, (R)-(2-(3-ethylphenyl)-1-(3-(4-(2-methoxyphenyl)-1H-1,2,3-triazol-1-yl)propanamido)ethyl)boronic acid] | 50 to 500 | +++ (+++: Selectivity > 30) | – | < 50 |
| CCc1cccc(C[C@H](NC(=O)CCn2cc(-c3ccc(OC)cc3)nn2)B(O)O)c1 [Example 75, (R)-(2-(3-ethylphenyl)-1-(3-(4-(4-methoxyphenyl)-1H-1,2,3-triazol-1-yl)propanamido)ethyl)boronic acid] | 50 to 500 | +++ (+++: Selectivity > 30) | – | < 50 |
| CCOc1cccc(C[C@H](NC(=O)CCn2cnc3ccccc32)B(O)O)c1 [Example 67, (R)-(1-(3-(1H-benzo[d]imidazol-1-yl)propanamido)-2-(3-ethoxyphenyl)ethyl)boronic acid] | 50 to 500 | ++ (++: 10 < Selectivity < 30) | – | < 50 |
| CC(=O)N[C@@H](Cc1ccc2ccccc2c1)B(O)O [Example 95, (R)-(1-acetamido-2-(naphthalen-2-yl)ethyl)boronic acid] | 500 to 5000 | +++ (+++: Selectivity > 30) | – | 50 to 500 |
| CCc1cccc(C[C@H](NC(=O)CCC(=O)c2cccc(-c3ccccc3)c2)B(O)O)c1 [Example 19, [(1R)-1-[(4-biphenyl-3-yl-4-oxobutanoyl)amino]-2-(3-ethylphenyl)ethyl]boronic acid] | 500 to 5000 | ++ (++: 10 < Selectivity < 30) | – | 50 to 500 |
| CCc1cccc(C[C@H](NC(=O)CCn2c(=O)sc3ccccc32)B(O)O)c1 [Example 30, ((1R)-2-(3-ethylphenyl)-1-{[3-(2-oxo-1,3-benzothiazol-3(2H)-yl)propanoyl]amino}ethyl)boronic acid] | 50 to 500 | ++ (++: 10 < Selectivity < 30) | – | < 50 |
| O=C(CCn1cnc2ccccc21)N[C@@H](Cc1cccc(C(F)(F)F)c1)B(O)O [Example 38, {(1R)-1-{[3-(1H-benzimidazol-1-yl)propanoyl]amino}-2-[3-(trifluoromethyl)phenyl]ethyl}boronic acid] | 50 to 500 | ++ (++: 10 < Selectivity < 30) | – | < 50 |
| CCc1cccc(C[C@H](NC(=O)CCn2cnc3ccccc32)B(O)O)c1 [Example 29, [(1R)-1-{[3-(1H-benzimidazol-1-yl)propanoyl]amino}-2-(3-ethylphenyl)ethyl]boronic acid] | 50 to 500 | ++ (++: 10 < Selectivity < 30) | – | < 50 |
| COc1ccccc1CCC(=O)N[C@@H](Cc1coc2ccccc12)B(O)O [Example 82] | < 50 | ++ (++: 10 < Selectivity < 30) | – | < 50 |

Second part, the compound after the results:

| IC50 [1] [nM] | Selectivity LMP7 vs Beta5 [2] | IC50 ([2]; purified human immuno proteasome 0.25 nM (examples 79, 80, 83, 84, 85, 87, 88, 89, 90, 91, 93, 94, 96, 97, 101 and 110)) [nM] | IC50 [2, 3] [nM] | SMILES |
| --- | --- | --- | --- | --- |
| 500 to 5000 | ++ (++: 10 < Selectivity < 30) | – | 50 to 500 | COc1ccc(C(=O)CCC(=O)N[C@@H](Cc2ccc(OC(F)(F)F)cc2)B(O)O)cc1 [Example 43, (R)-(1-(4-(4-methoxyphenyl)-4-oxobutanamido)-2-(4-(trifluoromethoxy)phenyl)ethyl)boronic acid] |
| > 5000 | +++ (+++: Selectivity > 30) | – | 50 to 500 | COc1ccc(C(=O)CCC(=O)N[C@@H](Cc2cccc(C(F)(F)F)c2)B(O)O)cc1 [Example 26, {(1R)-1-{[4-(4-methoxyphenyl)-4-oxobutanoyl]amino}-2-[3-(trifluoromethyl)phenyl]ethyl}boronic acid] |
| 50 to 500 | ++ (++: 10 < Selectivity < 30) | – | < 50 | O=C(CCn1cnc2ccccc21)N[C@@H](Cc1ccc(F)c(C(F)(F)F)c1)B(O)O [Example 64, (R)-(1-(3-(1H-benzo[d]imidazol-1-yl)propanamido)-2-(4-fluoro-3-(trifluoromethyl)phenyl)ethyl)boronic acid] |
| > 5000 | + (+: Selectivity < 10) | – | > 5000 | COc1ccc2occ(C[C@H](NC(C)=O)B(O)O)c2c1 [Example 108, (R)-(1-acetamido-2-(5-methoxybenzofuran-3-yl)ethyl)boronic acid] |
| 50 to 500 | ++ (++: 10 < Selectivity < 30) | – | < 50 | O=C(N[C@@H](Cc1ccsc1)B(O)O)[C@H](Cc1ccccc1)Cc1cn(-c2ccccc2)nn1 [Example 62, ((R)-1-((R)-2-benzyl-3-(1-phenyl-1H-1,2,3-triazol-4-yl)propanamido)-2-(thiophen-3-yl)ethyl)boronic acid] |
| 50 to 500 | + (+: Selectivity < 10) | – | < 50 | O=C(CCn1nnc2ccccc21)N[C@@H](Cc1ccsc1)B(O)O [Example 35, [(1R)-1-{[3-(1H-1,2,3-benzotriazol-1-yl)propanoyl]amino}-2-(3-thienyl)ethyl]boronic acid] |
| 500 to 5000 | ++ (++: 10 < Selectivity < 30) | – | 50 to 500 | O=C(CCc1noc(-c2ccccc2)n1)N[C@@H](Cc1cccc(OC(F)(F)F)c1)B(O)O [Example 60, (R)-(1-(3-(5-phenyl-1,2,4-oxadiazol-3-yl)propanamido)-2-(3-(trifluoromethoxy)phenyl)ethyl)boronic acid] |
| 500 to 5000 | ++ (++: 10 < Selectivity < 30) | – | 50 to 500 | CCc1cccc(C[C@H](NC(=O)CCn2ncc3ccccc32)B(O)O)c1 [Example 28, ((1R)-2-(3-ethylphenyl)-1-{[3-(1H-indazol-1-yl)propanoyl]amino}ethyl)boronic acid] |
| 500 to 5000 | ++ (++: 10 < Selectivity < 30) | – | 50 to 500 | O=C(CCC(=O)c1ccc2ccccc2c1)N[C@@H](Cc1ccsc1)B(O)O [Example 21, [(1R)-1-{[4-(2-naphthyl)-4-oxobutanoyl]amino}-2-(3-thienyl)ethyl]boronic acid] |
